pIC50: −log10 of the molar value. Calls of active or inactive are those of the source. The rule behind the calls is not given here.
How the values were obtained:
EBC-1 [1] = assay: (§1) Inhibition of cell proliferation of human EBC1 cells at 10 uM after 72 hrs by SRB assay; assay type: functional
[2] = molecular target: T1, Hepatocyte growth factor receptor (Homo sapiens, UniProt P08581); assay: Inhibition of recombinant c-Met (unknown origin) at 10 uM using poly (Glu,Tyr)4:1 substrate incubated for 60 mins by ELISA method
[3] = Inhibition of cell proliferation of human EBC1 cells after 72 hrs by SRB assay; conditions: EBC-1, 72 h
[4] = molecular target: T1, Hepatocyte growth factor receptor; assay: Inhibition of recombinant c-Met (unknown origin) using poly (Glu,Tyr)4:1 substrate incubated for 60 mins by ELISA method
[5] = as §1; assay type: functional; conditions: EBC-1, 72 h
[6] = Inhibition of cell proliferation of human EBC1 cells at 1 uM after 72 hrs by SRB assay; conditions: EBC-1, 72 h, read-out: INH
EBC-1 [7] = conditions: Homo sapiens, 1 uM
[8] = molecular target: T1, Hepatocyte growth factor receptor; assay: Inhibition of c-Met (unknown origin)

For `CN(C)CCCCOC(=O)Nc1cccc(Cn2nc(Nc3ccccc3C(F)(F)F)ccc2=O)c1`, the inhibition (EBC-1 [1]) was “inactive” and the inhibition [2] was 63.4%.

In the case of `O=c1ccc(-n2ccc3ccc(F)cc32)nn1Cc1cccc(-c2ncc(OCCN3CCOCC3)cn2)c1`, the pIC50 [3] was 6.91.

Compound `CN(C)CCCCOC(=O)Nc1cccc(Cn2nc(-n3ccc4ccc(F)cc43)ccc2=O)c1` has a pIC50 [3] of at least 6.00.

For `CN(C)CCCCOC(=O)Nc1cccc(Cn2nc(Nc3cccc(Cl)c3)ccc2=O)c1`, the inhibition (EBC-1 [1]) was “inactive”.

In the case of `CN(C)CCOC(=O)Nc1cccc(Cn2nc(-n3ccc4ccc(F)cc43)ccc2=O)c1`, the pIC50 [3] was at least 6.00.

For `CCOC(=O)Nc1cccc(Cn2nc(-n3ccc4ccc(F)cc43)ccc2=O)c1`, the pIC50 [4] was under 5.00.

With `COC(=O)CCCCOC(=O)Nc1cccc(Cn2nc(-n3ccc4ccc(F)cc43)ccc2=O)c1` the pIC50 [3] was under 5.00.

`COCCOc1ccc2c(OCCn3nc(-n4ccc5ccc(F)cc54)ccc3=O)ccnc2c1` showed a pIC50 [3] of 7.68.

In the case of `CN(C)CCOCCOC(=O)Nc1cccc(Cn2nc(-n3ccc4ccc(F)cc43)ccc2=O)c1`, the pIC50 [3] was at least 6.00.

For `CN(C)CCCCOC(=O)Nc1cccc(Cn2nc(Nc3ccccc3)ccc2=O)c1`, the pIC50 [3] was under 5.00 and the inhibition (EBC-1 [1]) was “inactive”.

In the case of `CN(C)CCCCOC(=O)Nc1cccc(Cn2nc(Nc3cc(F)cc(F)c3)ccc2=O)c1`, the inhibition (EBC-1 [1]) was “inactive”.

In the case of `Cc1ccccc1Nc1ccc(=O)n(Cc2cccc(NC(=O)OCCCCN(C)C)c2)n1`, the inhibition (EBC-1 [1]) was “inactive”.

Work on `Cc1ccccc1Nc1ccc(=O)n(Cc2ccccc2NC(=O)OCCCCN(C)C)n1` yielded a pIC50 [4] of under 5.00.

Work on `CN(C)CCCCOC(=O)Nc1cccc(Cn2nc(-n3ccc4ccccc43)ccc2=O)c1` yielded an inhibition at 10 µM [5] of over 70% and an inhibition at 1 µM [6] of under 50%.

`CN(C)CCCCCOC(=O)Nc1cccc(Cn2nc(-n3ccc4ccc(F)cc43)ccc2=O)c1` showed a pIC50 [3] of at least 7.00.

For `COc1cnc(-c2cccc(Cn3nc(-n4ccc5ccc(F)cc54)ccc3=O)c2)nc1`, the pIC50 [3] was under 6.00 and the inhibition (EBC-1 [7]) was “inactive”.

With `Nc1ccc(Cn2nc(Nc3ccccc3)ccc2=O)cc1` the pIC50 [8] was 5.00.

`O=C(Nc1cccc(Cn2nc(-n3ccc4ccc(F)cc43)ccc2=O)c1)OCCCCn1cccn1` gave a pIC50 [3] of at least 6.00.
